Results reported in US12630563B2, “Macrocyclic RIP2-kinase inhibitors” (Oncodesign S.A., priority 2020, dated 2026).

The compounds below were run against T1, recombinant hRIPK2 protein (kinase domain aa 1-299-His-tagged) (Homo sapiens, UniProt O43353) (assay: RIPK2 AlphaLISA assay (displacement of bead-bound CZC-8004 from hRIPK2)). Conditions: recombinant hRIPK2 kinase domain 10 nM, 2 h at 23° C.
T1 construct: kinase domain aa 1-299-His-tagged; purchased Life Technologies PR7829A
Assay type: binding
Excerpt: RIPK2 AlphaLISA® Assay (Amplified Luminescent Proximity Homogeneous Assay)
A non-specific kinase inhibitor (CZC-8004 Cayman #916603-07-1) bound to an acceptor bead (#6772001 PerkinElmer) was mixed to the recombinant hRIPK2 protein (kinase domain aa 1-299-His-tagged—Life Technologies PR7829A) and a Ni2+-tagged donor beads (#AS101D PerkinElmer). In the presence of an inhibitor, the compound beads displacement from hRIPK2 was followed by signal loss. In a 384-well ProxiPlate@ (Perkin Elmer, 6008280) add:
2 μL RIPK2 inhibitor (in DMSO 0.8%).
2 μL human recombinant RIPK2 (10 nM diluted in AlphaLISA buffer 1×).
4 μL Mix of […] 1/1000 in AlphaLISA buffer 1×.
Homogenize using a microtiter plate shaker and incubate for 2 h at 23° C.
Read using EnVision®-Alpha Reader (PerkinElmer) according to manufacturer specifications.

T1 sequence (O43353 1-299): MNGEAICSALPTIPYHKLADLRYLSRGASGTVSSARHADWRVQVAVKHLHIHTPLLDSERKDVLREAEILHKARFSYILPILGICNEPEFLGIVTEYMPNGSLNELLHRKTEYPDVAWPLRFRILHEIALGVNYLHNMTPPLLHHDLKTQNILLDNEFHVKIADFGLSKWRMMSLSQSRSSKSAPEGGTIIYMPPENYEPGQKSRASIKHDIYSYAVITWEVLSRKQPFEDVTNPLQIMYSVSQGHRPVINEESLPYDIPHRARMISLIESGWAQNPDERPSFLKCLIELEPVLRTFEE

| Compound | IC50 [nM] |
| --- | --- |
| CC(C)O[C@@H]1C[C@H]2COc3ccn4ncc(c4n3)-c3cc(Cl)cc(c3)NCCN2C1=O [Example 38, (12R,14S)-4-chloro-12-(propan-2-yloxy)-16-oxa-7,10,20,21,24-pentaazapentacyclo[15.5.2.1^2,6.0^10,^14.0^20,^23]pentacosa-1(23),2,4,6(25),17(24),18,21-heptaen-11-one] | < 10 |
| CO[C@@H]1C[C@H]2COc3ccn4ncc(c4n3)-c3cc(cc(OCc4cccnc4)c3)NCCN2C1=O [Example 44, (12R,14S)-12-methoxy-4-(pyridin-3-ylmethoxy)-16-oxa-7,10,20,21,24-pentaazapentacyclo[15.5.2.1^2,6.0^1°,^14.0^2°,^23]pentacosa-1 (23),2(25),3,5,17(24),18,21-heptaen-11-one] | 10 to 100 |
| CO[C@@H]1C[C@H]2COc3ccn4ncc(c4n3)-c3cc(cc(OCC4CC4)c3)NCCN2C1=O [Example 45, (12R,14S)-4-(cyclopropylmethoxy)-12-methoxy-16-oxa-7,10,20,21,24-pentaazapentacyclo[15.5.2.1^2,6.0^10,^14.0^20,^23]pentacosa-1(23),2,4,6(25),17(24),18,21-heptaen-11-one] | 100 to 11000 |
| COCCO[C@@H]1C[C@H]2COc3ccn4ncc(c4n3)-c3cc(cc(OC)c3)NCCN2C1=O [Example 47, (12R,14S)-4-methoxy-12-(2-methoxyethoxy)-16-oxa-7,10,20,21,24-pentaazapentacyclo[15.5.2.1^2,6.0^10,^14.0^20,^23]pentacosa-1(23),2(25),3,5,17(24),18,21-heptaen-11-one] | < 10 |
| CO[C@@H]1C[C@H]2COc3nc4c(cnn4cc3C)-c3cc(cc(OCc4cccnc4)c3)NCCN2C1=O [Example 49, (12R,14S)-12-methoxy-18-methyl-4-(pyridin-3-ylmethoxy)-16-oxa-7,10,20,21,24-pentaazapentacyclo[15.5.2.1^2,6.0^10,^14.0^20,^23]pentacosa-1(23),2,4,6(25),17(24),18,21-heptaen-11-one] | 10 to 100 |
| CO[C@@H]1C[C@H]2COc3nc4c(cnn4cc3C)-c3cc(cc(OCC4CCOC4)c3)NCCN2C1=O (stereo partly drawn) [Example 50, (12R,14S)-12-methoxy-18-methyl-4-(oxolan-3-ylmethoxy)-16-oxa-7,10,20,21,24-pentaazapentacyclo[15.5.2.1^2,6.0^10,^14.0^20,^23]pentacosa-1(23),2,4,6(25),17(24),18,21-heptaen-11-one] | 10 to 100 |
| CO[C@@H]1C[C@H]2COc3nc4c(cnn4cc3C)-c3cc(cc(OCc4cnn(C)c4)c3)NCCN2C1=O [Example 51, (12R,14S)-12-methoxy-18-methyl-4-[(1-methyl-1H-pyrazol-4-yl)methoxy]-16-oxa-7,10,20,21,24-pentaazapentacyclo[15.5.2.1^2,6.0^10,^14.0^20,^23]pentacosa-1(23),2,4,6(25),17(24),18,21-heptaen-11-one] | 100 to 11000 |
| [2H]C([2H])([2H])Oc1cc2cc(c1)-c1cnn3ccc(nc13)OC[C@@H]1C[C@@H](OC)C(=O)N1CCN2 [Example 52, (12R,14S)-4-(^2H3)methoxy-12-methoxy-16-oxa-7,10,20,21,24-pentaazapentacyclo[15.5.2.1^2,6.0^10,^14.0^20,^23]pentacosa-1(23),2,4,6(25),17(24),18,21-heptaen-11-one] | < 10 |
| [2H]C([2H])([2H])Oc1cc2cc(c1)-c1cnn3ccc(nc13)OC[C@@H]1C[C@@H](OC([2H])([2H])[2H])C(=O)N1CCN2 [Example 53, (12R,14S)-4,12-bis(^2H3)methoxy-16-oxa-7,10,20,21,24-pentaazapentacyclo[[15.5.2.1^2,6.0^10,^14.0^20,^23]pentacosa-1(23),2,4,6(25),17(24),18,21-heptaen-11-one] | < 10 |
| CCO[C@@H]1C[C@H]2COc3ccn4ncc(c4n3)-c3cc(cc(C(=O)N(C)C)c3)NCCN2C1=O [Example 58, (12R,14S)-12-ethoxy-N,N-dimethyl-11-oxo-16-oxa-7,10,20,21,24-pentaazapentacyclo[15.5.2.1^2,6.0^10,^14.0^20,^23]pentacosa-1(23),2(25),3,5,17(24),18,21-heptaene-4-carboxamide] | < 10 |
| CCO[C@@H]1C[C@H]2COc3ccn4ncc(c4n3)-c3cc(cc(C(=O)NC)c3)NCCN2C1=O [Example 59, (12R,14S)-12-ethoxy-N-methyl-11-oxo-16-oxa-7,10,20,21,24-pentaazapentacyclo[15.5.2.1^2,6.0^10,^14.0^20,^23]pentacosa-1(23),2(25),3,5,17(24),18,21-heptaene-4-carboxamide] | < 10 |
| CCO[C@@H]1C[C@H]2COc3ccn4ncc(c4n3)-c3cc(cc(C(N)=O)c3)NCCN2C1=O [Example 60, (12R,14S)-12-ethoxy-11-oxo-16-oxa-7,10,20,21,24-pentaazapentacyclo[15.5.2.1^2,6.0^10,^14.0^20,^23]pentacosa-1(23),2(25),3,5,17(24),18,21-heptaene-4-carboxamide] | < 10 |
| CO[C@@H]1C[C@H]2COc3ccn4ncc(c4n3)-c3cc(cc(C(=O)N(C)CC4CC4)c3)NCCN2C1=O [Example 61, (12R,14S)-N-(cyclopropylmethyl)-12-methoxy-N-methyl-11-oxo-16-oxa-7,10,20,21,24-pentaazapentacyclo[15.5.2.1^2,6.0^10,^14.0^20,^23]pentacosa-1(23),2,4,6(25),17(24),18,21-heptaene-4-carboxamide] | 100 to 11000 |
| CCN(C)C(=O)c1cc2cc(c1)-c1cnn3cc(C)c(nc13)OC[C@@H]1C[C@@H](OC)C(=O)N1CCN2 [Example 62, (12R,14S)-N-ethyl-12-methoxy-N,18-dimethyl-11-oxo-16-oxa-7,10,20,21,24-pentaazapentacyclo[15.5.2.1^2,6.0^10,^14.0^20,^23]pentacosa-1(23),2(25),3,5,17(24),18,21-heptaene-4-carboxamide] | < 10 |

The remaining lines, values ahead:

| IC50 [nM] | Compound |
| --- | --- |
| < 10 | CCO[C@@H]1C[C@H]2COc3nc4c(cnn4cc3C)-c3cc(cc(OC)c3)NCCN2C1=O [Example 39, (2^3Z,2^4E,5^2S,5^4R)-5^4-ethoxy-1^5-methoxy-2^6-methyl-3-oxa-8-aza-2(3,5)-pyrazolo[1,5-a]96yrimidine-5(2,1)-pyrrolidina-1(1,3)-benzenacyclooctaphan-5^5-one] |
| < 10 | CO[C@@H]1CC2(C)COc3ccn4ncc(c4n3)-c3cc(F)cc(c3)NCCN2C1=O (stereo partly drawn) [Example 40] |
| < 10 | CO[C@@H]1C[C@H]2COc3ccn4ncc(c4n3)-c3cc(cc(-n4cccn4)c3)NCCN2C1=O [Example 41, (12R,14S)-12-methoxy-4-(1H-pyrazol-1-yl)-16-oxa-7,10,20,21,24-pentaazapentacyclo[15.5.2.1^2,6.0^10,^14.0^20,^23]pentacosa-1(23),2(25),3,5,17(24),18,21-heptaen-11-one] |
| < 10 | CO[C@@H]1C[C@H]2COc3nc4c(cnn4cc3C)-c3cc(cc(-n4cccn4)c3)NCCN2C1=O [Example 42, (12R,14S)-12-methoxy-18-methyl-4-(1H-pyrazol-1-yl)-16-oxa-7,10,20,21,24-pentaazapentacyclo[15.5.2.1^2,6.0^10,^14.0^20,^23]pentacosa-1(23),2(25),3,5,17(24),18,21-heptaen-11-one] |
| < 10 | CO[C@@H]1C[C@H]2COc3ccn4ncc(c4n3)-c3cc(cc(-n4nccc4C)c3)NCCN2C1=O [Example 43, (12R,14S)-12-methoxy-4-(5-methyl-1H-pyrazol-1-yl)-16-oxa-7,10,20,21,24-pentaazapentacyclo[15.5.2.1^2,6.0^10,^14.0^20,^23]pentacosa-1(23),2(25),3,5,17(24),18,21-heptaen-11-one] |
| 10 to 100 | CO[C@@H]1C[C@H]2COc3ccn4ncc(c4n3)-c3cc(cc(OCc4cnn(C)c4)c3)NCCN2C1=O [Example 46, (12R,14S)-12-methoxy-4-[(1-methyl-1H-pyrazol-4-yl)methoxy]-16-oxa-7,10,20,21,24-pentaazapentacyclo[15.5.2.1^2,6.0^10,^14.0^20,^23]pentacosa-1(23),2,4,6(25),17(24),18,21-heptaen-11-one] |
| 100 to 11000 | CO[C@@H]1C[C@H]2COc3nc4c(cnn4cc3C)-c3cc(cc(OCC4CC4)c3)NCCN2C1=O [Example 48, (12R,14S)-4-(cyclopropylmethoxy)-12-methoxy-18-methyl-16-oxa-7,10,20,21,24-pentaazapentacyclo[15.5.2.1^2,6.0^10,^14.0^20,^23]pentacosa-1(23),2,4,6(25),17(24),18,21-heptaen-11-one] |
| < 10 | CCN(C)C(=O)c1cc2cc(c1)-c1cnn3ccc(nc13)OC[C@@H]1C[C@@H](OC)C(=O)N1CCN2 [Example 56, (12R,14S)-N-ethyl-12-methoxy-N-methyl-11-oxo-16-oxa-7,10,20,21,24-pentaazapentacyclo[15.5.2.1^2,6.0^10,^14.0^20,^23]pentacosa-1(23),2,4,6(25),17(24),18,21-heptaene-4-carboxamide] |
| < 10 | CCO[C@@H]1C[C@H]2COc3ccn4ncc(c4n3)-c3cc(cc(C(=O)N(C)OC)c3)NCCN2C1=O [Example 57, (12R,14S)-12-ethoxy-N-methoxy-N-methyl-11-oxo-16-oxa-7,10,20,21,24-pentaazapentacyclo[15.5.2.1^2,6.0^10,^14.0^20,^23]pentacosa-1(23),2(25),3,5,17(24),18,21-heptaene-4-carboxamide] |
| < 10 | CO[C@@H]1C[C@H]2COc3nc4c(cnn4cc3C)-c3cc(cc(C(=O)N(C)OC)c3)NCCN2C1=O [Example 63, (12R,14S)-N,12-dimethoxy-N,18-dimethyl-11-oxo-16-oxa-7,10,20,21,24-pentaazapentacyclo[15.5.2.1^2,6.0^10,^14.0^20,^23]pentacosa-1(23),2,4,6(25),17(24),18,21-heptaene-4-carboxamide] |
